The test concerns 415267-285-R-J2-PDC complex spheroid viability. Put plainly: Anticancer human tumor 415267-285-R-J2-PDC patient-derived breast carcinoma cell line growth inhibition [POLQ]. As to conditions: for viability, T/C: stronger effect = lower value. On the procedure: Multicellular complex tumor spheroid response to Polymerase (POL) inhibitors (novobiocin, ART-558, RP6685) in combination with a variety of drugs and investigational agents in selected tumor cell lines
The POL inhibitors (novobiocin, ART-558, and RP6685) were evaluated both individually and in combination with standard of care and investigational anticancer small molecules within a complex spheroid model of solid tumors. . Complex spheroids include a stromal component modeled by human endothelial cells (HUVEC) and fibroblasts modeled by human mesenchymal stem cells (MSCs). The concentration ranges selected for each drug and investigational agent were based upon clinically achievable concentrations if the clinical Cmax of the agent was known.
Compounds. The drugs and investigational agents: novobiocin (NSC847541), ART-558 (NSC835418), RP-6685 (NSC848927), peposertib (NSC802822), ceralasertib (NSC780249), elimusertib (NSC800525), camonsertib (NSC841442), AZD-1390 (NSC803789), olaparib (NSC753686), talazoparib (NSC767125), rucaparib (NSC756644), sotorasib (NSC818433), MRTX-1133 (NSC836407), SN-38 (NSC673596), topotecan (NSC609699), epotoside (NSC141540), doxorubicin (NSC123127), gemcitabine (NSC613327), 5-fluorouracil (NSC19893), paclitaxel (NSC125973), vemurafenib (NSC761431), MSA-2 (NSC828583), SN-011 (NSC837082), adavosertib (NSC754352), prexasertib (NSC758257), carboplatin (NSC241240) and oxaliplatin (NSC266046), were obtained from the National Cancer Institute (NCI) Developmental Therapeutics Program Chemical Repository (21). The FDA-approved anticancer drug set is available from the Developmental Therapeutics Program at https://dtp.cancer.gov/organization/dscb/obtaining/. […] The stock solutions were prepared in dimethyl sulfoxide (DMSO, Sigma-Aldrich, St. Louis, MO, cat. D2650), except for the platinum compounds which were prepared in saline (Quality Biological, Gaithersburg, MD, cat. 114-055-101), at 800-fold the tested concentration and stored at -70 degrees C prior to their use. All drugs and investigational agents were tested over a range starting from a high concentration at or near the clinical Cmax and decreasing in half-log increments. If the clinical Cmax for an agent had not been determined, the highest concentration tested was 10 microM, except for SN-38, which was tested at a high concentration of 1 microM.
Cell Culture. All cells were maintained in an incubator at 37 degrees C and 5% CO2 with 95% humidity. The PDC lines were cultured according to standard operating procedures established by the NCI PDMR (https://pdmr.cancer.gov). Table 3 of the manuscript, lists the cell lines along with the number of the three cell types plated to form the mct-spheroids and media for tumor cell growth. After thawing, all PDC lines, except 997537-175-T-J1-PDC and 415267-285-R-J2-PDC, were cultured in Matrigel-coated flasks prepared with a working solution of 1X Ham's F-12 nutrient mix, without supplementation (Thermo Fisher Scientific, cat. 11765054), 100 U/mL penicillin-streptomycin (Thermo Fisher Scientific, cat. 15140122), and 2.5% Matrigel (Corning Inc., Corning, NY, cat. 354248) for the first three passages. The two PDC lines 997537-175-T-J1-PDC and 415267-285-R-J2-PDC were cultured on uncoated flasks. The 857933-349-R-J2-PDC line was cultured in 6C/Colon 1B media containing advanced DMEM/F-12 (Thermo Fisher Scientific, cat. 12634028), 10 mM HEPES (Thermo Fisher Scientific, cat. 15630080), 1X GlutaMAX supplement (Thermo Fisher Scientific, cat. 35050061), 0.1 mg/mL primocin (InvivoGen, San Diego, CA, cat. ant-pm-2), 10% defined fetal bovine serum, heat inactivated (HyClone Laboratories Inc., Logan, UT, cat. SH30070.03HI), 50% L-WRN conditioned media (ATCC, cat. CRL-3276), 1.25 mM N-Acetyl-L-cysteine (Sigma-Aldrich, cat. A9165), 10 mM nicotinamide (Sigma-Aldrich, cat. N0636), 1X B-27 supplement (Thermo Fisher Scientific, cat. 17504044), 1X N-2 supplement (Thermo Fisher Scientific, cat. […]

What is called viability, T/C is the ratio of treated to control. Broadly, the IC50 is the point on the concentration scale where inhibition reaches its midpoint.

Each structure is given as a SMILES string. Values joined by “and” are separate entries in the source; they are usually repeats but may differ in a detail not shown here. Equal values may be shown once.
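Note: spheroids exposed to compounds for one week before readout.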
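Throughout, for viability, T/C: luminescence used as stand-in measure of viable cells.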

`Nc1ccn(C2OC(CO)C(O)C2(F)F)c(=O)n1` (stereo not drawn): the viability, T/C is 5.29% and 5.02% and 7.12% (compound 0.1 µM); 6.27% and 4.87% and 6.14% (compound 0.316 µM); 5.28% and 7.75% and 7.66% (compound 1 µM); 5.29% and 4.37% and 5.37% (compound 3.16 µM); 6.07% and 4.68% and 5.14% (compound 10 µM). Moreover, the IC50 (curve of compound) was less than 31.6 nM.
In the case of `COc1cccc(OCCCN)c1-c1cc(Nc2cnc(C#N)cn2)n[nH]1` + Cc1cccc(N(C)C(=O)C2C(O)CCN2c2nc(C)cc(C(F)(F)F)c2C#N)c1, the IC50 reads like this: (curve of first compound, second compound 0.0316 µM) 7.34 nM; (curve of first compound, second compound 0.1 µM) 6.81 nM; (curve of first compound, second compound 0.316 µM) 6.37 nM; (curve of first compound, second compound 1 µM) 5.94 nM; (curve of first compound, second compound 3.16 µM) 5.9 nM; (curve of first compound, second compound 10 µM) 5.77 nM. The viability, T/C is 116% (second compound 0.0316 µM, first compound 0.00316 µM); 25.7% (second compound 0.0316 µM, first compound 0.01 µM); 6.57% (second compound 0.0316 µM, first compound 0.0316 µM); 5.98% (second compound 0.0316 µM, first compound 0.1 µM); 5.5% (second compound 0.0316 µM, first compound 0.316 µM); 4.04% (second compound 0.0316 µM, first compound 1 µM). For the same molecule, the viability, T/C runs as follows: (second compound 0.1 µM, first compound 0.00316 µM) 106%; (second compound 0.1 µM, first compound 0.01 µM) 22.1%; (second compound 0.1 µM, first compound 0.0316 µM) 5.33%; (second compound 0.1 µM, first compound 0.1 µM) 6.85%; (second compound 0.1 µM, first compound 0.316 µM) 7.24%; (second compound 0.1 µM, first compound 1 µM) 4.47%. Moreover, the viability, T/C by setting is: (second compound 0.316 µM, first compound 0.00316 µM) 107%; (second compound 0.316 µM, first compound 0.01 µM) 13%; (second compound 0.316 µM, first compound 0.0316 µM) 5.56%; (second compound 0.316 µM, first compound 0.1 µM) 4.64%; (second compound 0.316 µM, first compound 0.316 µM) 4.82%; (second compound 0.316 µM, first compound 1 µM) 4.6%. The viability, T/C is 99.2% (second compound 1 µM, first compound 0.00316 µM); 9.45% (second compound 1 µM, first compound 0.01 µM); 5.53% (second compound 1 µM, first compound 0.0316 µM); 5.41% (second compound 1 µM, first compound 0.1 µM); 6.23% (second compound 1 µM, first compound 0.316 µM); 4.72% (second compound 1 µM, first compound 1 µM). Also, the viability, T/C runs as follows: (second compound 3.16 µM, first compound 0.00316 µM) 97.3%; (second compound 3.16 µM, first compound 0.01 µM) 10.1%; (second compound 3.16 µM, first compound 0.0316 µM) 7.08%; (second compound 3.16 µM, first compound 0.1 µM) 5.58%; (second compound 3.16 µM, first compound 0.316 µM) 5.55%; (second compound 3.16 µM, first compound 1 µM) 4.93%. In addition, the viability, T/C (second compound 10 µM, first compound 0.00316 µM) was 94.3%; the viability, T/C (second compound 10 µM, first compound 0.01 µM) was 9.4%; the viability, T/C (second compound 10 µM, first compound 0.0316 µM) was 6.2%; the viability, T/C (second compound 10 µM, first compound 0.1 µM) was 10.2%; the viability, T/C (second compound 10 µM, first compound 0.316 µM) is 5.74%; the viability, T/C (second compound 10 µM, first compound 1 µM) was 5.13%.

The values above are taken from PubChem BioAssay AID1963847 (Molecular Pharmacology Branch, DTP, NCI, 2024).
